Results on two compounds are retold here after US20260125440A1, “INCRETIN ANALOGS AND USES THEREOF” (ELI LILLY AND COMPANY, priority 2019, published 2026).

In general, Emax refers to the size of the effect at its maximum, as opposed to the concentration needed. As a reminder, the AUC(0-inf) is the area under the concentration-time curve extrapolated to infinity. Low readings indicate low exposure, high ones high exposure. As usually defined, the CL/F is the apparent clearance, not corrected for the fraction that reaches the circulation. As usually defined, the Cmax is the peak of the concentration-time curve. What is called Tmax is the time at which the peak concentration occurs.

Like-named read-outs stand apart in the source and are kept apart here. Numbered stars: 1 amine (or outer) side, 2 acyl side, 3 side chain; on linkers, the order of the positions; unused ones are H or OH. Square brackets hold non-standard residues; d marks the D form. Side chains are listed from the residue outwards. Peptide text beside a SMILES is read from it. * marks the point of attachment. ξ: configuration not given here. C20 diacid = O=C(O)CCCCCCCCCCCCCCCCCCC(=O)*; αMePhe(2-F) = C[C@](N)(Cc1ccccc1F)C(=O)O; γGlu = O=C(O)[C@H](CCC(=O)[*:2])N[*:1]; αMeY = C[C@](N)(Cc1ccc(O)cc1)C(=O)O; 4Pal = N[C@@H](Cc1ccncc1)C(=O)O; αMeL = CC(C)C[C@](C)(N)C(=O)O; Orn = NCCC[C@H](N)C(=O)O; ξIva = CCC(C)(N)C(=O)O; AEEA = NCCOCCOCC(=O)O; Aib = CC(C)(N)C(=O)O

In series [1] the target is T1, hGIPR (Homo sapiens, UniProt P48546).
T1 construct: expressed in transfected cells; host or cells: HEK-293 clonal cell line
T1 sequence (P48546 22-466): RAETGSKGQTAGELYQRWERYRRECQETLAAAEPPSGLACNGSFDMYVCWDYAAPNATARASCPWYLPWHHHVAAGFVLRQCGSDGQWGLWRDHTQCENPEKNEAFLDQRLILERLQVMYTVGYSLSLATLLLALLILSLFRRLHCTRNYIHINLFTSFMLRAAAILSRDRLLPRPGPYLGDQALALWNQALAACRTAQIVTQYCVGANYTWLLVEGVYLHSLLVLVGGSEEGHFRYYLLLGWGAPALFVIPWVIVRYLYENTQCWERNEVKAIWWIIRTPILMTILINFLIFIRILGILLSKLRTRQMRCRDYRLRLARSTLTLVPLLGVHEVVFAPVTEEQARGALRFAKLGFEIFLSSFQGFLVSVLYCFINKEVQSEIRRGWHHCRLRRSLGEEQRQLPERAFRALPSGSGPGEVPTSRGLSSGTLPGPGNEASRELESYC
Nature of the series: Functional cAMP assay in HEK-293 cells expressing hGIPR. In kind it is cell-based. Particulars: percent of maximal response to GIP(1-42)NH2. The procedure: (§1) Experiments also are performed under identical assay conditions with the addition of 1.0% fatty acid free, globulin free human serum albumin (Sigma Cat #A3782).
(§2) After a 30-min incubation at 37° C., the resulting increase in intracellular cAMP is quantitatively determined using a CisBio cAMP Dynamic 2 HTRF Assay Kit (62AM4PEJ). Briefly, cAMP levels within the cell are detected by adding the cAMP-d2 conjugate in cell lysis buffer (10 μL) followed by the antibody anti-cAMP-Eu^3+-Cryptate, also in cell lysis buffer (10 μL). The resulting competitive assay is incubated for at least 60 min at room temperature, and then is detected using a PerkinElmer Envision® instrument with excitation at 320 nm and emission at 665 nm and 620 nm. Envision units (emission at 665 nm/620 nm*10,000) are inversely proportional to the amount of cAMP present and are converted to nM cAMP per well using a cAMP standard curve. […] A relative EC50 value and percent top (Emax) are derived by non-linear regression analysis using the percent maximal response vs. the concentration of peptide added, fitted to a four-parameter logistic equation.
On the technique in general: cAMP levels reflect the balance of adenylyl cyclase and phosphodiesterase activity.

A short description of series [2]: Pharmacokinetics in male diet-induced obese (DIO) mice. It counts as in vivo. Particulars: mouse, single 200 nmol/kg SQ dose, plasma; for half-life: read-out: t½ (converted). On the procedure: Methods: Male DIO mice are administered a single SQ dose of 200 nmol/kg (0.98 mg/kg) of Example compounds in 40 mM Tris-HCL pH8 buffer with 0.02% PS80 at a volume of 10 mL/kg. […] Plasma concentration of Example compounds are determined by a qualified Liquid Chromatography Mass Spectrometry (LC/MS) method at Q Squared Solutions BioSciences LLC (Ithaca, NY). The Example compounds and an internal standard are extracted from 100% mouse plasma using protein precipitation followed by solid phase extraction. The intact mass of the Example compounds, which includes peptide plus acyl chain, are detected by a Q-Exactive™ Orbitrap® mass spectrometer.

Series [3] addresses T2, hGLP-1R (Homo sapiens, UniProt P43220).
T2 construct: expressed in transfected cells; host or cells: HEK-293 clonal cell line
Nature of the series: Functional cAMP assay in HEK-293 cells expressing hGLP-1R. In kind it is cell-based. Particulars: percent of maximal response to GLP-1(7-36)NH2. The procedure:
as §1, §2

T2 sequence (P43220 24-463): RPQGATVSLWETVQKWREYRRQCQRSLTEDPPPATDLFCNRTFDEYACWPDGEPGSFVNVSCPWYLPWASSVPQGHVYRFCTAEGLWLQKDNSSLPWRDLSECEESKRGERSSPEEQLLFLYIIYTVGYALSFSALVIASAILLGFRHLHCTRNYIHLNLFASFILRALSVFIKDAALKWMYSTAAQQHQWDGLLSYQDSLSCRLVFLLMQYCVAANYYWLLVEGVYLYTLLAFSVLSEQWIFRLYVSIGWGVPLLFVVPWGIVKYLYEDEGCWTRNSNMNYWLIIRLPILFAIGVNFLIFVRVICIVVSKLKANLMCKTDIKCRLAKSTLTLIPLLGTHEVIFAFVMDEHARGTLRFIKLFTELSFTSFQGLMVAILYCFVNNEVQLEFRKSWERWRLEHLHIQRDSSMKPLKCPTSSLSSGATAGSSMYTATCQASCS

Regarding `CC[C@H](C)[C@H](NC(=O)[C@H](Cc1ccccc1)NC(=O)[C@H](C)NC(=O)C(C)(CC)NC(=O)[C@H](CCC(N)=O)NC(=O)[C@H](C)NC(=O)[C@H](CCCCNC(=O)COCCOCCNC(=O)CC[C@H](NC(=O)CCCCCCCCCCCCCCCCCCC(=O)O)C(=O)O)NC(=O)[C@H](CCCN)NC(=O)[C@H](CC(=O)O)NC(=O)[C@H](CC(C)C)NC(=O)[C@](C)(CC(C)C)NC(=O)[C@@H](NC(=O)[C@H](CO)NC(=O)[C@H](Cc1ccc(O)cc1)NC(=O)[C@H](CC(=O)O)NC(=O)[C@H](CO)NC(=O)[C@@H](NC(=O)[C@](C)(Cc1ccccc1F)NC(=O)[C@@H](NC(=O)CNC(=O)[C@H](CCC(N)=O)NC(=O)C(C)(C)NC(=O)[C@@H](N)Cc1ccc(O)cc1)[C@@H](C)O)[C@@H](C)O)[C@@H](C)CC)C(=O)N[C@@H](CCC(=O)O)C(=O)N[C@@](C)(Cc1ccc(O)cc1)C(=O)N[C@@H](CC(C)C)C(=O)N[C@@H](CC(C)C)C(=O)N[C@@H](CCC(=O)O)C(=O)NCC(=O)NCC(=O)N1CCC[C@H]1C(=O)N[C@@H](CO)C(=O)N[C@@H](CO)C(=O)NCC(=O)N[C@@H](CCC(=O)O)C(=O)N1CCC[C@H]1C(=O)N1CCC[C@H]1C(=O)N1CCC[C@H]1C(=O)N[C@@H](CO)C(N)=O` (stereo partly shown) [Example 2] (H-Y[Aib]QGT[αMePhe(2-F)]TSDYSI[αMeL]LD[Orn]K([AEEA-γGlu-C20 diacid])AQ[ξIva]AFIE[αMeY]LLEGGPSSGEPPPS-NH2; N-terminus assumed), the Emax in series [1] (HEK293, 0.1% bovine casein and 1.0% human serum albumin, read-out: hGIPR Emax) is 99 ± 2%. Further, the maximal effect (Emax) in series [1] (HEK293, 0.1% bovine casein, read-out: hGIPR Emax) was determined as 101 ± 2%. For the same compound, in series [2] (subcutaneous), the AUC(0-inf) stood at 42.5 µM·h, the CL/F was 4.7 mL/h/kg, the highest level (Cmax) was 1240 nM and the Tmax is 12 h. Besides, the half-life in series [2] (subcutaneous) is 18 h.
For the compound `CC[C@H](C)[C@H](NC(=O)[C@H](Cc1ccccc1)NC(=O)[C@H](C)NC(=O)[C@H](Cc1ccncc1)NC(=O)[C@H](CCC(N)=O)NC(=O)[C@H](C)NC(=O)[C@H](CCCCNC(=O)COCCOCCNC(=O)CC[C@H](NC(=O)CCCCCCCCCCCCCCCCCCC(=O)O)C(=O)O)NC(=O)[C@H](CCCN)NC(=O)[C@H](CC(=O)O)NC(=O)[C@H](CC(C)C)NC(=O)[C@H](CC(C)C)NC(=O)[C@@H](NC(=O)[C@H](CO)NC(=O)[C@H](Cc1ccc(O)cc1)NC(=O)[C@H](CC(=O)O)NC(=O)[C@H](CO)NC(=O)[C@@H](NC(=O)[C@](C)(Cc1ccccc1F)NC(=O)[C@@H](NC(=O)CNC(=O)[C@H](CCC(N)=O)NC(=O)C(C)(C)NC(=O)[C@@H](N)Cc1ccc(O)cc1)[C@@H](C)O)[C@@H](C)O)[C@@H](C)CC)C(=O)N[C@@H](CCC(=O)O)C(=O)N[C@@H](Cc1ccc(O)cc1)C(=O)N[C@@H](CC(C)C)C(=O)N[C@@H](CC(C)C)C(=O)N[C@@H](CCC(=O)O)C(=O)NCC(=O)NCC(=O)N1CCC[C@H]1C(=O)N[C@@H](CO)C(=O)N[C@@H](CO)C(=O)NCC(=O)N[C@@H](CCC(=O)O)C(=O)N1CCC[C@H]1C(=O)N1CCC[C@H]1C(=O)N1CCC[C@H]1C(=O)N[C@@H](CCC(=O)O)C(N)=O` [Example 1] (H-Y[Aib]QGT[αMePhe(2-F)]TSDYSILLD[Orn]K([AEEA-γGlu-C20 diacid])AQ[4Pal]AFIEYLLEGGPSSGEPPPE-NH2), the maximal effect (Emax) in series [3] (HEK293, read-out: hGLP-1R Emax, 0.1% bovine casein and 1.0% human serum albumin) turned out to be 102 ± 4%. The Emax in series [3] (HEK293, read-out: hGLP-1R Emax, 0.1% bovine casein) is 106 ± 4%. The Emax in series [1] (HEK293, read-out: hGIPR Emax, 0.1% bovine casein and 1.0% human serum albumin) came out at 100 ± 3%. Besides, the maximum response (Emax) in series [1] (HEK293, read-out: hGIPR Emax, 0.1% bovine casein) came out at 102 ± 2%. In series [2] (in vivo), the area under the curve AUC(0-inf) is 55.6 µM·h, the apparent clearance CL/F is 3.6 mL/h/kg, the highest level (Cmax) was 817 nM and the Tmax was found to be 12 h. Further, the half-life in series [2] (in vivo) is 38 h.
